Patent publication US9328118B2, “Nitrogen-containing bicyclic aromatic heterocyclic compound” (ASTELLAS PHARMA INC., priority 2012, dated 2016)
Structures can show the parent of a compound that is named as a salt.

Columns and labels:
human cathepsin S = human cathepsin S (Homo sapiens (Human), UniProt P25774); assay: In vitro human cathepsin S inhibitory activity (VVR-AMC fluorescence); format: biochemical; settings: human cathepsin S enzyme, substrate VVR-AMC 40 μM, pH 4.5, 37° C.; read-out: IC50 value of the human cathepsin S inhibitory activity (Data 1)
Chain of human cathepsin S (P25774 115-331): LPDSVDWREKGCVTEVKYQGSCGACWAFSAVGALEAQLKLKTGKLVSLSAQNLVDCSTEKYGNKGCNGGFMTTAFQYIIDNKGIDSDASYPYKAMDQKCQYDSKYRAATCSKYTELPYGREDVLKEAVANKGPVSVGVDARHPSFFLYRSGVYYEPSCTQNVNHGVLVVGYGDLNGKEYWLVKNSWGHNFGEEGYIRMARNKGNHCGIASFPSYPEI
Protocol: Test Example 1 Measurement of a In Vitro Human Cathepsin S Inhibitory Activity
5 μL of a human cathepsin S enzyme (R&D1183-CY-010) was added to a 96-well plate so as to be 20 ng/well. […] A reaction rate at the time of not adding an enzyme in which the test compound was not added and a reaction rate at the time of adding an enzyme in which the test compound was not added were set to 100% inhibition and 0% inhibition, respectively, then, an inhibition rate at each concentration was determined, and IC50 values were calculated by a linear regression method. In the Table, Ex represents Example compound No., and Data 1 represents an IC50 value (nM) of the human cathepsin S inhibitory activity.

[1] = test system: MHC class II expression in B220 positive B cells of mouse spleen cells; assay: In vitro MHC class II expression inhibitory effect using mouse spleen cells (LPS-stimulated B cells, flow cytometry); format: cell-based, C57BL/6 mice; settings: B-cell, C57BL/6 spleen cells, LPS 2 μg/mL, 48 hours, B220 positive B cells, read-out: IC50 value of MHC class II expression inhibition (Data 2)
Protocol: Test Example 2 Evaluation of In Vitro MHC Class II Expression Inhibitory Effect Using Mouse Spleen Cells (Cell Evaluation System)
In antigen-presenting cells, the inhibition of cathepsin S inhibits the expression of MHC class II molecules. […] For an increased expression of MI-IC class II in B cells, the inhibitory effect of the compound represented by formula (I) was examined.
First, spleen cells collected from C57BL/6 mice were seeded in a 96-well plate so as to be a 1×10^5 cells/well, then, 5-fold dilution of 10 mM DMSO solution of the test compound was serially performed with RPMI 1640 medium (including 10% fetal bovine serum (FCS), 5×10^−5 M 2-mercaptoethanol, 50 IU/mL penicillin and 50 μg/mL streptomycin) nine times such that the final concentration becomes 0.026 nM to 10 μM, and the resultant products were added thereto (the final DMSO concentration was 0.1%). At the same time, LPS (Sigma L4005) was added to the wells such that the final concentration becomes 2 μg/mL, and culture was performed at 37° C. for 48 hours in 5% CO2. After culturing, the cells were stained at 4° C. for 20 minutes with PE-labeled streptavidin (BD BIOSCIENCE 554061) and biotin-labeled YAe antibody (EBIOSCIENCE 13-5741-85) together with FITC-labeled anti-mouse B220 antibody (BD BIOSCIENCE 553088), and an expression level (fluorescence intensity of YAe-biotin/streptavidin-PE) of MHC class II to which Ea peptide in B220 positive B cells was bonded was measured using a flow cytometry system (Guava EasyCyte Plus System, manufactured by Millipore Corporation). A value at the time of unstimulation of LPS in which the test compound was not added and a value at the time of stimulation of LPS in which the test compound was not added were set to 100% inhibition and 0% inhibition, respectively, then, an inhibition rate at each concentration was determined, and IC50 values were calculated by a linear regression method. In the Table, Ex represents Example compound No., and Data 2 represents an IC50 value (nM).

Compound	IC50 (human cathepsin S) [nM]	IC50 [1] [nM]
CCOc1ccc(-c2nc(C#N)nc3c2ccn3CC(=O)N2CCN(C)CC2)cc1C(F)(F)F [Example 5, 4-[4-ethoxy-3-(trifluoromethyl)phenyl]-7-[2-(4-methylpiperazin-1-yl)-2-oxoethyl]-7H-pyrrolo[2,3-d]pyrimidine-2-carbonitrile]	4.2	–
CN(C)C(=O)N1CCC(CCOc2ccc(-c3nc(C#N)nc4c3ncn4C)cc2C(F)(F)F)CC1 [Example 7, 4-{2-[4-(2-cyano-9-methyl-9H-purin-6-yl)-2-(trifluoromethyl)phenoxy]ethyl}-N,N-dimethylpiperidine-1-carboxamide]	6.2	–
CN1CCN(C(=O)Cn2ccc3c(-c4ccc(OCCC5CCOCC5)c(C(F)(F)F)c4)nc(C#N)nc32)CC1 [Example 8, 7-[2-(4-methylpiperazin-1-yl)-2-oxoethyl]-4-{4-[2-(tetrahydro-2H-pyran-4-yl)ethoxy]-3-(trifluoromethyl)phenyl}-7H-pyrrolo[2,3-d]pyrimidine-2-carbonitrile monohydrochloride]	1.6	–
Cc1nc2c(-c3ccc(OCCC4CCNCC4)c(C(F)(F)F)c3)nc(C#N)nc2n1C [Example 10, 8,9-dimethyl-6-{4-[2-(piperidin-4-yl)ethoxy]-3-(trifluoromethyl)phenyl}-9H-purine-2-carbonitrile monohydrochloride]	2.7	–
CCN1CCC(CCOc2ccc(-c3nc(C#N)nc4c3nc(C)n4C)cc2C(F)(F)F)CC1 [Example 11, 6-{4-[2-(1-ethylpiperidin-4-yl)ethoxy]-3-(trifluoromethyl)phenyl}-8,9-dimethyl-9H-purine-2-carbonitrile]	1.9	–
CCN1CCCC(CCOc2ncc(-c3nc(C#N)nc4c3ccn4C)cc2C(F)(F)F)C1 (stereo not drawn) [Example 12, 4-{6-[2-(1-ethylpiperidin-3-yl)ethoxy]-5-(trifluoromethyl)pyridin-3-yl}-7-methyl-7H-pyrrolo[2,3-d]pyrimidine-2-carbonitrile monohydrochloride]	2.7	–
CCN1CCC(CCOc2ccc(-c3nc(C#N)nc4c3ccn4CCOC)cc2C(F)(F)F)CC1 [Example 13, 4-{4-[2-(1-ethylpiperidin-4-yl)ethoxy]-3-(trifluoromethyl)phenyl}-7-(2-methoxyethyl)-7H-pyrrolo[2,3-d]pyrimidine-2-carbonitrile monohydrochloride]	2.7	–
Cn1ccc2c(-c3ccc(OCCC4CCN(C5CC5)CC4)c(C(F)(F)F)c3)nc(C#N)nc21 [Example 14, 4-{4-[2-(1-cyclopropylpiperidin-4-yl)ethoxy]-3-(trifluoromethyl)phenyl}-7-methyl-7H-pyrrolo[2,3-d]pyrimidine-2-carbonitrile]	2.3	–
CN(C)C(=O)CN1CCC(CCOc2ccc(-c3nc(C#N)nc4c3ccn4CC3CCCO3)cc2C(F)(F)F)CC1 (stereo not drawn) [Example 16, 2-[4-(2-{4-[2-cyano-7-(tetrahydrofuran-2-ylmethyl)-7H-pyrrolo[2,3-d]pyrimidin-4-yl]-2-(trifluoromethyl)phenoxy}ethyl)piperidin-1-yl]-N,N-dimethylacetamide monohydrochloride]	4.7	–
Cn1cnc2c(-c3ccc(OCCC4CCNCC4)c(C(F)(F)F)c3)nc(C#N)nc21 [Example 19]	–	0.7
CN(C)C(=O)CN1CCC(CCOc2ccc(-c3nc(C#N)nc4c3ccn4CCO)cc2C(F)(F)F)CC1 [Example 21]	–	1
N#Cc1nc(-c2ccc(OCCC3CCNCC3)c(C(F)(F)F)c2)c2ccn(CC3CCOC3)c2n1 (stereo not drawn) [Example 23]	–	3
Cn1cnc2c(-c3ccc(OCCC4CCN(CCO)CC4)c(C(F)(F)F)c3)nc(C#N)nc21 [Example 24]	–	0.8
CCN1CCC(CCOc2ccc(-c3nc(C#N)nc4c3ncn4C)cc2C(F)(F)F)CC1 [Example 26]	–	0.61
CCN1CCC(CCOc2ncc(-c3nc(C#N)nc4c3ccn4C)cc2C(F)(F)F)CC1 [Example 27]	–	1.3
CN1CCC[C@H]1C(=O)N1CCC(CCOc2ccc(-c3nc(C#N)nc4c3ncn4C)cc2C(F)(F)F)CC1 [Example 29]	–	0.66
CN1CCC[C@H]1C(=O)N1CCC(CCOc2ccc(-c3nc(C#N)nc4c3ccn4CC3CCOC3)cc2C(F)(F)F)CC1 (stereo partly drawn) [Example 30]	–	0.97
Cn1ccc2c(-c3ccc(OCCC4C5CCC4CNC5)c(C(F)(F)F)c3)nc(C#N)nc21 (stereo not drawn) [Example 38]	4.5	–
CN1CCC[C@H]1C(=O)N1CCC(CCOc2ncc(-c3nc(C#N)nc4c3ncn4C)cc2C(F)(F)F)CC1 [Example 40]	–	0.85
CN1CCC[C@H]1C(=O)N1CCC(CCOc2ncc(-c3nc(C#N)nc4c3ccn4C)cc2C(F)(F)F)CC1 [Example 41]	–	1.1
CCN1CCC(CCOc2ncc(-c3nc(C#N)nc4c3ccn4CC3CCOC3)cc2C(F)(F)F)CC1 (stereo not drawn) [Example 52]	–	1.8

Compound	IC50 (human cathepsin S) [nM]	IC50 [1] [nM]
CCN1CCC(CCOc2ccc(-c3nc(C#N)nc4c3ccn4CC3CCOC3)cc2C(F)(F)F)CC1 (stereo not drawn) [Example 54]	–	0.94
N#Cc1nc(-c2ccc(OCCC3CCNCC3)c(C(F)(F)F)c2)c2ccn(CC3CCCO3)c2n1 (stereo not drawn) [Example 58]	–	2
CN1CCC(CCOc2ncc(-c3nc(C#N)nc4c3ncn4C)cc2C(F)(F)F)CC1 [Example 136, 9-methyl-6-{6-[2-(1-methylpiperidin-4-yl)ethoxy]-5-(trifluoromethyl)pyridin-3-yl}-9H-purine-2-carbonitrile]	1.5	–
Cn1cnc2c(-c3cnc(OCCC4CCN(C(=O)[C@@H]5CCCN5)CC4)c(C(F)(F)F)c3)nc(C#N)nc21 [Example 138]	2.7	–
CC(C)N1CCC(CCOc2ncc(-c3nc(C#N)nc4c3ncn4C)cc2C(F)(F)F)CC1 [Example 139]	2.1	–
Cn1cnc2c(-c3cnc(OCCC4CCN5CCCC5C4)c(C(F)(F)F)c3)nc(C#N)nc21 (stereo not drawn) [Example 142]	1.5	–
CN1CCC[C@@H]1C(=O)N1CC[C@H](OCCOc2ncc(-c3nc(C#N)nc4c3ccn4C)cc2C(F)(F)F)C1 [Example 143, 7-methyl-4-[6-(2-{[(3S)-1-(1-methyl-D-prolyl)pyrrolidin-3-yl]oxy}ethoxy)-5-(trifluoromethyl)pyridin-3-yl]-7H-pyrrolo[2,3-d]pyrimidine-2-carbonitrile monofumarate]	1.5	–
CC(C)CN1CCC(CCOc2ncc(-c3nc(C#N)nc4c3ncn4C)cc2C(F)(F)F)CC1 [Example 144]	2.8	–
Cn1cnc2c(-c3cnc(OCCC4CCN(C(CF)CF)CC4)c(C(F)(F)F)c3)nc(C#N)nc21 [Example 145]	1	–
Cn1cnc2c(-c3cnc(OCCC4CCN(C(C)(C)C)CC4)c(C(F)(F)F)c3)nc(C#N)nc21 [Example 146]	3.2	–
Cn1ccc2c(-c3cnc(OCCOC4CCNCC4)c(C(F)(F)F)c3)nc(C#N)nc21 [Example 147]	2.4	–
Cn1ccc2c(-c3cnc(OCCO[C@H]4CCNC4)c(C(F)(F)F)c3)nc(C#N)nc21 [Example 148]	2.8	–
CN1CCC[C@H]1C(=O)N1CCC(OCCOc2ncc(-c3nc(C#N)nc4c3ccn4C)cc2C(F)(F)F)CC1 [Example 149]	2.7	–
CN1CCC[C@H]1C(=O)N1CC[C@H](OCCOc2ncc(-c3nc(C#N)nc4c3ccn4C)cc2C(F)(F)F)C1 [Example 150]	1.7	–
Cn1ccc2c(-c3cnc(OCC4CCNCC4)c(C(F)(F)F)c3)nc(C#N)nc21 [Example 153]	1.6	–
Cn1ccc2c(-c3cnc(OCC4CCN(C(=O)[C@@H]5CCCN5)CC4)c(C(F)(F)F)c3)nc(C#N)nc21 [Example 154]	2.4	–
Cn1ccc2c(-c3cnc(OCC4CCN(CC(C)(C)O)CC4)c(C(F)(F)F)c3)nc(C#N)nc21 [Example 155]	1.5	–
CC(C)N1CCC[C@H]1C(=O)N1CCC(COc2ncc(-c3nc(C#N)nc4c3ccn4C)cc2C(F)(F)F)CC1 [Example 156]	2.4	–
CN1CCC[C@H]1C(=O)N1CC[C@@H](OCCOc2ncc(-c3nc(C#N)nc4c3ccn4C)cc2C(F)(F)F)C1 [Example 157]	2.1	–
Cn1ccc2c(-c3cnc(OCC4CCN(C(=O)C5CCNCC5)CC4)c(C(F)(F)F)c3)nc(C#N)nc21 [Example 159]	2.7	–
Cn1ccc2c(-c3cnc(OCC4CCN(C(=O)C5CCN(C6CCOCC6)CC5)CC4)c(C(F)(F)F)c3)nc(C#N)nc21 [Example 160]	2.4	–
